# Results: publication PMC3618488 (Chemical communications (Cambridge, England), 2013)
# Read-outs that look alike come from different tables or passages of the source.
# Molecular target: Pseudomonas aeruginosa elastase (LasB) (Pseudomonas aeruginosa, UniProt P14756)
# Test: biochemical
# Type: biochemical
# Conditions: for fold reduction in potency relative to tropolone (3): against LasB, compared with 3
# Sequence of Pseudomonas aeruginosa elastase (LasB) (P14756 198-498): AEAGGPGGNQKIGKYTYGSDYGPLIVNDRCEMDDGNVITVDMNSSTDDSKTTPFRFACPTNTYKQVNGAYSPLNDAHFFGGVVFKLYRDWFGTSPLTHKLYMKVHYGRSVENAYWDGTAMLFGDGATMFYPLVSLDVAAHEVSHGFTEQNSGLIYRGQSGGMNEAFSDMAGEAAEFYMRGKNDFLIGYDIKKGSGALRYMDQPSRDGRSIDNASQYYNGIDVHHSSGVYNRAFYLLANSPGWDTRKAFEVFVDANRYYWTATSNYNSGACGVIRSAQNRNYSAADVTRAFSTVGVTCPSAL
Molecule,IC50 (read-out: IC50 for LasB inhibition),fold reduction in potency relative to tropolone (3),IC50
"Nc1ccc(O)c(=O)cc1 [compound 6, 5-aminotropolone]",180 ± 1 µM,–,–
acetyltropolone [compound 4],–,~ 3 fold,–
"CC(C)c1cccc(=O)c(O)c1 [compound 5, β-thujaplicin]",–,~ 3 fold,1340 ± 370 µM
